Reference: PMC7859723 (International Journal of Biological Macromolecules, 2021)

Columns and labels:
SARS-CoV-2 3CLpro [1] = molecular target: T1, SARS-CoV-2 3CLpro (Severe acute respiratory syndrome coronavirus 2, UniProt P0DTD1); assay: FRET protease assay, 3CLpro enzyme activity inhibition; format: biochemical
SARS-CoV-2 3CLpro [2] = molecular target: T1, SARS-CoV-2 3CLpro; assay: SPR binding assay on immobilized 3CLpro
Water solubility = format: physicochemical
3CLpro [3] = settings: read-out: IC50, inhibition of 3CLpro activity; cited from earlier work
3CLpro [4] = settings: cited from earlier work
SARS-CoV-2 3CLpro [5] = molecular target: T1, SARS-CoV-2 3CLpro; assay: Thermal shift assay; format: binding; settings: compared with DMSO control
[6] = retrieved from database; ref TCMSP database; cited from earlier work

Structure (SMILES) | IC50 (SARS-CoV-2 3CLpro [1]) | Kd (SARS-CoV-2 3CLpro [2]) | other results
O=c1c(O)c(-c2ccc(O)cc2)oc2cc(O)cc(O)c12 [Kaempferol, kaempferol] | > 100000 nM | 1700 nM | 
COc1cc(-c2oc3cc(O)cc(O)c3c(=O)c2O)ccc1O [Isorhamnetin, isorhamnetin] |  |  | water solubility (Water solubility): low water solubility
O=C1C[C@@H](c2ccc(O)cc2)Oc2cc(O)cc(O)c21 [Naringenin, naringenin] | > 100000 nM | 2870 nM | 
O=c1c2ccccc2[se]n1-c1ccccc1 [Ebselen] |  |  | IC50 (3CLpro [3]): 670 ± 90 nM; EC50 (3CLpro [4]): 4670 ± 800 nM
O=c1cc(-c2ccc(O)c(O)c2)oc2cc(O)cc(O)c12 [Luteolin, luteolin] | 89700 nM | 1630 nM | 
O=C(O[C@@H]1Cc2c(O)cc(O)cc2O[C@@H]1c1cc(O)c(O)c(O)c1)c1cc(O)c(O)c(O)c1 [Epigallocatechin-3-gallate, epigallocatechin-3-gallate] |  |  | effect on thermal stability of 3CLpro (SARS-CoV-2 3CLpro [5]): altered the thermal stability of SARS-CoV-2 3CLpro in a dose-dependent manner; OB (oral bioavailability) [6]: 55.09%
